From ChEMBL document CHEMBL4680298, “2-Aryl-3-(6-trifluoromethoxy)benzo[d]thiazole-based thiazolidinone hybrids as potential anti-infective agents: Synthesis, biological evaluation and molecular docking studies” (2021)
Values after ≈ are worked out from the molar mass of the structure shown.

Key:
Escherichia coli [1] = experiment: Anti-infective activity against Escherichia coli ATCC 35210 assessed as reduction in bacterial growth by microdilution method; assay type: functional
Staphylococcus aureus [2] = experiment: Anti-infective activity against Staphylococcus aureus ATCC 6538 assessed as reduction in bacterial growth by microdilution method; assay type: functional
Escherichia coli [3] = experiment: Anti-infective activity against resistant Escherichia coli assessed as reduction in bacterial growth by microdilution method; assay type: functional
Salmonella typhimurium = experiment: Anti-infective activity against Salmonella typhimurium ATCC 13311 assessed as reduction in bacterial growth by microdilution method; assay type: functional, Salmonella enterica subsp. enterica serovar Typhimurium; conditions: Salmonella enterica
Pseudomonas aeruginosa [4] = experiment: Anti-infective activity against Pseudomonas aeruginosa ATCC 27853 assessed as reduction in bacterial growth by microdilution method; assay type: functional
Listeria monocytogenes = experiment: Anti-infective activity against Listeria monocytogenes NCTC 7973 assessed as reduction in bacterial growth by microdilution method; assay type: functional
Staphylococcus aureus [5] = experiment: Anti-infective activity against methicillin resistance Staphylococcus aureus assessed as reduction in bacterial growth by microdilution method; assay type: functional
Pseudomonas aeruginosa [6] = experiment: Anti-infective activity against Pseudomonas aeruginosa PAO1 assessed as reduction in bacterial growth by microdilution method; assay type: functional

| SMILES | MBC (Escherichia coli [1]) | MIC (Escherichia coli [1]) | MBC (Staphylococcus aureus [2]) | MIC (Staphylococcus aureus [2]) | MBC (Escherichia coli [3]) | MIC (Escherichia coli [3]) | MBC (Salmonella typhimurium) | MIC (Salmonella typhimurium) | MBC (Pseudomonas aeruginosa [4]) | MIC (Pseudomonas aeruginosa [4]) | MBC (Listeria monocytogenes) | MIC (Listeria monocytogenes) | MBC (Staphylococcus aureus [5]) | MIC (Staphylococcus aureus [5]) | MBC (Pseudomonas aeruginosa [6]) | MIC (Pseudomonas aeruginosa [6]) |
| --- | --- | --- | --- | --- | --- | --- | --- | --- | --- | --- | --- | --- | --- | --- | --- | --- |
| O=C1CSC(c2ccc([N+](=O)[O-])cc2)N1c1nc2ccc(OC(F)(F)F)cc2s1 (racemic) | 250 µg/mL (≈ 566 µM) | 120 µg/mL (≈ 272 µM) | 500 µg/mL (≈ 1130 µM) | 250 µg/mL (≈ 566 µM) | 500 µg/mL (≈ 1130 µM) | 250 µg/mL (≈ 566 µM) | 250 µg/mL (≈ 566 µM) | 120 µg/mL (≈ 272 µM) | 500 µg/mL (≈ 1130 µM) | 250 µg/mL (≈ 566 µM) | 500 µg/mL (≈ 1130 µM) | 250 µg/mL (≈ 566 µM) | 1000 µg/mL (≈ 2270 µM) | 500 µg/mL (≈ 1130 µM) | 250 µg/mL (≈ 566 µM) | 120 µg/mL (≈ 272 µM) |
| O=C1CSC(c2cccc(Cl)c2Cl)N1c1nc2ccc(OC(F)(F)F)cc2s1 (racemic) | 250 µg/mL (≈ 537 µM) | 150 µg/mL (≈ 322 µM) | 250 µg/mL (≈ 537 µM) | 100 µg/mL (≈ 215 µM) | 250 µg/mL (≈ 537 µM) | 120 µg/mL (≈ 258 µM) | 250 µg/mL (≈ 537 µM) | 150 µg/mL (≈ 322 µM) | 500 µg/mL (≈ 1070 µM) | 250 µg/mL (≈ 537 µM) | 250 µg/mL (≈ 537 µM) | 100 µg/mL (≈ 215 µM) | 1000 µg/mL (≈ 2150 µM) | 500 µg/mL (≈ 1070 µM) | 120 µg/mL (≈ 258 µM) | 120 µg/mL (≈ 258 µM) |
| O=C1CSC(c2c(F)cccc2F)N1c1nc2ccc(OC(F)(F)F)cc2s1 (racemic) | 250 µg/mL (≈ 578 µM) | 120 µg/mL (≈ 278 µM) | > 1000 µg/mL | > 1000 µg/mL | 500 µg/mL (≈ 1160 µM) | 250 µg/mL (≈ 578 µM) | 250 µg/mL (≈ 578 µM) | 120 µg/mL (≈ 278 µM) | 500 µg/mL (≈ 1160 µM) | 250 µg/mL (≈ 578 µM) | > 1000 µg/mL | > 1000 µg/mL | 1000 µg/mL (≈ 2310 µM) | 250 µg/mL (≈ 578 µM) | 500 µg/mL (≈ 1160 µM) | 300 µg/mL (≈ 694 µM) |
| O=C1CSC(c2ccc(O)cc2)N1c1nc2ccc(OC(F)(F)F)cc2s1 (racemic) | 250 µg/mL (≈ 606 µM) | 150 µg/mL (≈ 364 µM) | 750 µg/mL (≈ 1820 µM) | 500 µg/mL (≈ 1210 µM) | 500 µg/mL (≈ 1210 µM) | 250 µg/mL (≈ 606 µM) | 250 µg/mL (≈ 606 µM) | 150 µg/mL (≈ 364 µM) | 250 µg/mL (≈ 606 µM) | 120 µg/mL (≈ 291 µM) | 750 µg/mL (≈ 1820 µM) | 500 µg/mL (≈ 1210 µM) | 500 µg/mL (≈ 1210 µM) | 250 µg/mL (≈ 606 µM) | 500 µg/mL (≈ 1210 µM) | 300 µg/mL (≈ 727 µM) |
| O=C1CSC(c2ccc(Cl)cc2Cl)N1c1nc2ccc(OC(F)(F)F)cc2s1 (racemic) | 250 µg/mL (≈ 537 µM) | 120 µg/mL (≈ 258 µM) | 500 µg/mL (≈ 1070 µM) | 150 µg/mL (≈ 322 µM) | 500 µg/mL (≈ 1070 µM) | 250 µg/mL (≈ 537 µM) | 250 µg/mL (≈ 537 µM) | 120 µg/mL (≈ 258 µM) | 500 µg/mL (≈ 1070 µM) | 250 µg/mL (≈ 537 µM) | 500 µg/mL (≈ 1070 µM) | 150 µg/mL (≈ 322 µM) | 1000 µg/mL (≈ 2150 µM) | 500 µg/mL (≈ 1070 µM) | 1000 µg/mL (≈ 2150 µM) | 250 µg/mL (≈ 537 µM) |
| O=C1CSC(c2c(Cl)cccc2Cl)N1c1nc2ccc(OC(F)(F)F)cc2s1 (racemic) | 250 µg/mL (≈ 537 µM) | 120 µg/mL (≈ 258 µM) | 500 µg/mL (≈ 1070 µM) | 250 µg/mL (≈ 537 µM) | 500 µg/mL (≈ 1070 µM) | 250 µg/mL (≈ 537 µM) | 250 µg/mL (≈ 537 µM) | 120 µg/mL (≈ 258 µM) | 500 µg/mL (≈ 1070 µM) | 250 µg/mL (≈ 537 µM) | 500 µg/mL (≈ 1070 µM) | 250 µg/mL (≈ 537 µM) | 500 µg/mL (≈ 1070 µM) | 250 µg/mL (≈ 537 µM) | 250 µg/mL (≈ 537 µM) | 120 µg/mL (≈ 258 µM) |
| O=C1CSC(c2ccc(F)cc2)N1c1nc2ccc(OC(F)(F)F)cc2s1 (racemic) | 250 µg/mL (≈ 603 µM) | 150 µg/mL (≈ 362 µM) | 500 µg/mL (≈ 1210 µM) | 250 µg/mL (≈ 603 µM) | 500 µg/mL (≈ 1210 µM) | 250 µg/mL (≈ 603 µM) | 250 µg/mL (≈ 603 µM) | 150 µg/mL (≈ 362 µM) | 500 µg/mL (≈ 1210 µM) | 250 µg/mL (≈ 603 µM) | 500 µg/mL (≈ 1210 µM) | 250 µg/mL (≈ 603 µM) | 500 µg/mL (≈ 1210 µM) | 250 µg/mL (≈ 603 µM) | 500 µg/mL (≈ 1210 µM) | 250 µg/mL (≈ 603 µM) |
| O=C1CSC(c2ccc(Cl)cc2)N1c1nc2ccc(OC(F)(F)F)cc2s1 (racemic) | 250 µg/mL (≈ 580 µM) | 120 µg/mL (≈ 279 µM) | 500 µg/mL (≈ 1160 µM) | 250 µg/mL (≈ 580 µM) | 250 µg/mL (≈ 580 µM) | 120 µg/mL (≈ 279 µM) | 250 µg/mL (≈ 580 µM) | 120 µg/mL (≈ 279 µM) | 500 µg/mL (≈ 1160 µM) | 250 µg/mL (≈ 580 µM) | 500 µg/mL (≈ 1160 µM) | 250 µg/mL (≈ 580 µM) | 750 µg/mL (≈ 1740 µM) | 250 µg/mL (≈ 580 µM) | 250 µg/mL (≈ 580 µM) | 200 µg/mL (≈ 464 µM) |
| COc1ccc(C2SCC(=O)N2c2nc3ccc(OC(F)(F)F)cc3s2)cc1 (racemic) | 500 µg/mL (≈ 1170 µM) | 250 µg/mL (≈ 586 µM) | 500 µg/mL (≈ 1170 µM) | 250 µg/mL (≈ 586 µM) | 500 µg/mL (≈ 1170 µM) | 250 µg/mL (≈ 586 µM) | 500 µg/mL (≈ 1170 µM) | 250 µg/mL (≈ 586 µM) | 500 µg/mL (≈ 1170 µM) | 250 µg/mL (≈ 586 µM) | 500 µg/mL (≈ 1170 µM) | 250 µg/mL (≈ 586 µM) | 1000 µg/mL (≈ 2340 µM) | 500 µg/mL (≈ 1170 µM) | 250 µg/mL (≈ 586 µM) | 120 µg/mL (≈ 281 µM) |
| O=C1CSC(c2c(F)cccc2Cl)N1c1nc2ccc(OC(F)(F)F)cc2s1 (racemic) | 500 µg/mL (≈ 1110 µM) | 250 µg/mL (≈ 557 µM) | 500 µg/mL (≈ 1110 µM) | 250 µg/mL (≈ 557 µM) | 500 µg/mL (≈ 1110 µM) | 250 µg/mL (≈ 557 µM) | 500 µg/mL (≈ 1110 µM) | 250 µg/mL (≈ 557 µM) | 1000 µg/mL (≈ 2230 µM) | 500 µg/mL (≈ 1110 µM) | 500 µg/mL (≈ 1110 µM) | 250 µg/mL (≈ 557 µM) | 1000 µg/mL (≈ 2230 µM) | 500 µg/mL (≈ 1110 µM) | 250 µg/mL (≈ 557 µM) | 120 µg/mL (≈ 267 µM) |
| CC1(C)S[C@@H]2[C@H](NC(=O)[C@H](N)c3ccccc3)C(=O)N2[C@H]1C(=O)O [AMPICILLIN] | 200 µg/mL (≈ 572 µM) | 150 µg/mL (≈ 429 µM) | 300 µg/mL (≈ 859 µM) | 150 µg/mL (≈ 429 µM) | – | 200 µg/mL (≈ 572 µM) | 200 µg/mL (≈ 572 µM) | 150 µg/mL (≈ 429 µM) | 150 µg/mL (≈ 429 µM) | 100 µg/mL (≈ 286 µM) | 300 µg/mL (≈ 859 µM) | 150 µg/mL (≈ 429 µM) | – | – | – | 200 µg/mL (≈ 572 µM) |
| CN[C@@H]1[C@H](O[C@H]2[C@H](O[C@H]3[C@H](O)[C@@H](O)[C@H](N=C(N)N)[C@@H](O)[C@@H]3N=C(N)N)O[C@@H](C)[C@]2(O)C=O)O[C@@H](CO)[C@H](O)[C@H]1O [STREPTOMYCIN] | 200 µg/mL (≈ 344 µM) | 100 µg/mL (≈ 172 µM) | 300 µg/mL (≈ 516 µM) | 150 µg/mL (≈ 258 µM) | 200 µg/mL (≈ 344 µM) | 100 µg/mL (≈ 172 µM) | 200 µg/mL (≈ 344 µM) | 100 µg/mL (≈ 172 µM) | 200 µg/mL (≈ 344 µM) | 100 µg/mL (≈ 172 µM) | 300 µg/mL (≈ 516 µM) | 150 µg/mL (≈ 258 µM) | – | 100 µg/mL (≈ 172 µM) | 100 µg/mL (≈ 172 µM) | 50 µg/mL (≈ 86 µM) |
